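Five concentrations, 48 hours, 96-well plates. At the GI50, growth is halved. The concentration for full growth arrest is given as TGI.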
Legend:
Test in all cases: NCI tumour cell line growth inhibition, 48 h
[1] = system: 786-0 renal
[2] = system: A498 renal
[3] = system: A549 NSCLC
[4] = system: ACHN renal
[5] = system: BT-549 breast
[6] = system: CAKI-1 renal
[7] = system: CCRF-CEM leukemia
[8] = system: COLO 205 colon
[9] = system: DU-145 prostate
[10] = system: EKVX NSCLC
[11] = system: HCC-2998 colon
[12] = system: HCT-116 colon
[13] = system: HCT-15 colon
[14] = system: HL-60(TB) leukemia
[15] = system: HOP-62 NSCLC
[16] = system: HOP-92 NSCLC
[17] = system: HS 578T breast
[18] = system: HT29 colon
[19] = system: IGROV1 ovarian
[20] = system: K-562 leukemia
[21] = system: KM12 colon
[22] = system: LOX IMVI melanoma
[23] = system: M14 melanoma
[24] = system: MALME-3M melanoma
[25] = system: MCF7 breast
[26] = system: MDA-MB-231 breast
[27] = system: MDA-MB-435
[28] = system: MOLT-4 leukemia
[29] = system: NCI-H226 lung
[30] = system: NCI-H460 lung
[31] = system: NCI-H522 lung
[32] = system: NCI/ADR-RES ovarian
[33] = system: OVCAR-3 ovarian
[34] = system: OVCAR-4 ovarian
[35] = system: OVCAR-5 ovarian
[36] = system: OVCAR-8 ovarian
[37] = system: PC-3 prostate
[38] = system: RPMI-8226 leukemia
[39] = system: RXF 393 renal
[40] = system: SF-268 CNS
[41] = system: SF-295 CNS
[42] = system: SF-539 CNS
[43] = system: SK-MEL-2 melanoma
[44] = system: SK-MEL-28 melanoma
[45] = system: SK-MEL-5 melanoma
[46] = system: SK-OV-3 ovarian
[47] = system: SN12C renal
[48] = system: SNB-19 CNS
[49] = system: SNB-75 CNS
[50] = system: SR leukemia
[51] = system: SW-620 colon
[52] = system: T-47D breast
[53] = system: TK-10 renal
[54] = system: U251 CNS
[55] = system: UACC-257 melanoma
[56] = system: UACC-62 melanoma
[57] = system: UO-31 renal

SMILES: CN(C)S(=O)(=O)c1oc(-c2ccccc2)nc1C#N
- GI50 [1]: 15.3 µM
- TGI [1]: 29.3 µM
- GI50 [2]: > 100 µM
- TGI [2]: > 100 µM
- GI50 [3]: 73.9 µM
- TGI [3]: > 100 µM
- GI50 [4]: 14.9 µM
- TGI [4]: 28.6 µM
- GI50 [5]: 12 µM
- TGI [5]: 25.1 µM
- GI50 [6]: 10.4 µM
- TGI [6]: 22.1 µM
- GI50 [7]: 1.9 µM
- TGI [7]: 9.32 µM
- GI50 [8]: 11.5 µM
- TGI [8]: 24.7 µM
- GI50 [9]: 15.6 µM
- TGI [9]: 29.4 µM
- GI50 [10]: 21.5 µM
- TGI [10]: 52.4 µM
- GI50 [11]: 16.9 µM
- TGI [11]: 31.6 µM
- GI50 [12]: 12.6 µM
- TGI [12]: 25.6 µM
- GI50 [13]: 11.6 µM
- TGI [13]: 29.5 µM
- GI50 [14]: 6.58 µM
- TGI [14]: 29.4 µM
- GI50 [15]: > 100 µM
- TGI [15]: > 100 µM
- GI50 [16]: 5.76 µM
- TGI [16]: 20.1 µM
- GI50 [17]: 23.4 µM
- TGI [17]: 98.4 µM
- GI50 [18]: 16.6 µM
- TGI [18]: 36.1 µM
- GI50 [19]: 29 µM
- TGI [19]: > 100 µM
- GI50 [20]: 3.58 µM
- TGI [20]: 37.8 µM
- GI50 [21]: 28.5 µM
- TGI [21]: 97.9 µM
- GI50 [22]: 1.26 µM
- TGI [22]: 11.6 µM
- GI50 [23]: 12.1 µM
- TGI [23]: 26.7 µM
- GI50 [24]: 13.4 µM
- TGI [24]: 30.1 µM
- GI50 [25]: 12 µM
- TGI [25]: 31.6 µM
- GI50 [26]: 23.5 µM
- TGI [26]: 59.2 µM
- GI50 [27]: 18.3 µM
- TGI [27]: 44.9 µM
- GI50 [28]: 2.82 µM
- TGI [28]: 11.5 µM
- GI50 [29]: 10 µM
- TGI [29]: 27.9 µM
- GI50 [30]: 22.3 µM
- TGI [30]: 58.9 µM
- GI50 [31]: 2.81 µM
- TGI [31]: 11 µM
- GI50 [32]: 29.9 µM
- TGI [32]: > 100 µM
- GI50 [33]: 12.9 µM
- TGI [33]: 27.8 µM
- GI50 [34]: 14.8 µM
- TGI [34]: 32 µM
- GI50 [35]: 18.1 µM
- TGI [35]: 36.7 µM
- GI50 [36]: 19 µM
- TGI [36]: 39.6 µM
- GI50 [37]: 15.3 µM
- TGI [37]: 32.2 µM
- GI50 [38]: 18.9 µM
- TGI [38]: 43.8 µM
- GI50 [39]: 14.4 µM
- TGI [39]: 28.4 µM
- GI50 [40]: 19.6 µM
- TGI [40]: 49.8 µM
- GI50 [41]: > 100 µM
- TGI [41]: > 100 µM
- GI50 [42]: 17.6 µM
- TGI [42]: 32.4 µM
- GI50 [43]: 13.8 µM
- TGI [43]: 28.6 µM
- GI50 [44]: 16.3 µM
- TGI [44]: 31.1 µM
- GI50 [45]: 18.1 µM
- TGI [45]: 34.1 µM
- GI50 [46]: > 100 µM
- TGI [46]: > 100 µM
- GI50 [47]: 17.2 µM
- TGI [47]: 49.1 µM
- GI50 [48]: 50 µM
- TGI [48]: > 100 µM
- GI50 [49]: 16.1 µM
- TGI [49]: 30.7 µM
- GI50 [50]: 2.56 µM
- TGI [50]: 13.4 µM
- GI50 [51]: 9.58 µM
- TGI [51]: 26.2 µM
- GI50 [52]: 16.1 µM
- TGI [52]: 38.5 µM
- GI50 [53]: 17.4 µM
- TGI [53]: 31.6 µM
- GI50 [54]: 17.1 µM
- TGI [54]: 32.6 µM
- GI50 [55]: 15 µM
- TGI [55]: 29.8 µM
- GI50 [56]: 18.4 µM
- TGI [56]: 42.3 µM
- GI50 [57]: 14.7 µM
- TGI [57]: 28.2 µM

Reference: PubChem BioAssay (NCI)
